These results are taken from patent EP2468882A1, “Aurora kinase polypeptides for identifying fungicidal compounds” (Bayer CropScience AG, priority 2010, dated 2012).

Each structure is given as a SMILES string.

As usually defined, the IC50 is the point on the concentration scale where inhibition reaches its midpoint. A lower IC50 goes with higher potency.

One experiment has as its system U. maydis. Put plainly: ED50 determination, growth inhibition of U. maydis in liquid culture. As to conditions: concentration at which growth in liquid culture is inhibited by 50%; 3 days, 20°C, OD at 600 nm. It counts as cell-based. How it is done: Der ED50 Wert ist die Konzentration einer Verbindung, bei der das Wachstum von U. maydis in Flüssigkultur zu 50% gehemmt wird. Verbindungen für ED50-Bestimmungen wurden in Methanol + 4 g/l Emulgator (z. B. PS 16 von Bayer AG) zu 666,67facher Endkonzentration gelöst. 15 µl jeder Verbindung werden in 7 Konzentrationen bei getrocknet. Flüssigkulturen von U. maydis in Difco Potato Dextrose Broth (BD, Cat No #254920) wurden auf eine OD600 ~ 0,1 eingestellt und je 200 µl dieser Suspension zugegeben. Die Kulturen wurden 3 Tage bei 20°C, 600 Upm und 80% Luftfeuchte inkubiert. Anschließend wurde die OD bei 600 nm bestimmt und gegen die Inhibitor-Konzentration der Verbindung 1 aufgetragen. Als positive Kontrolle wurde Euparen (Dichlorfluarid; CAS 1085-98-9) verwendet, als negative Kontrolle Methanol + PS 16 ohne Inhibitor. Aus der gemessenen OD600 wurde der ED50-Wert bestimmt (Abb. 5). Der ED50 Wert der Verbindung 1 wurde zu 21,8 ppm ermittelt, der ED50 Wert von Dichlorfluarid wurde zu 1 ppm ermittelt. [formula] [formula] [formula] [formula] [formula] [formula] [formula] [formula] [formula] [formula] [formula] [formula] [formula] [formula] [formula] [formula] [formula] [formula] [formula] [formula] [formula] [formula] [formula] [formula] [formula] [formula] [formula] [formula]

Experiment [1] has as its target Komplex aus SEQ ID NO: 12 und SEQ ID NO: 16 (Mycosarcoma maydis (Ustilago maydis), UniProt A0A0D1E894). In words: IMAP fluorescence polarisation assay, inhibition of Aurora kinase (AK/AKA complex). As to conditions: final enzyme concentration 2 ng/µl, final ATP 35 µM, reaction time 50 min. The class given is biochemical, U. maydis. The source says:
Assay 3: Für den kommerziell erhältlichen IMAP Assay (Molecular Devices) sind 2 Substrate für humane Aurorakinasen (Kemptide, Cat #R7331, Sequenz 5TAMRA-LRRASLG-OH und PKAtide, Cat #R7250, Lot #130188, Sequenz 5FAM-GRTGRRNSI-NH2) kommerziell erwerbbar. Der Assay wurde nach Herstellerangaben durchgeführt. • IMAP Progressive Binding Reagent: Cat #R7284, Lot #143859 • IMAP Progressive Binding Buffer A: Cat #R7285, Lot #42898 • IMAP 5x Reaction Buffer: Cat #R7206, Lot #33060
Der IMAP Fluoreszenz-Polarisations-Assay (Molecular Devices) beruht auf der spezifschen, hochafmen Interaktion zwischen Phosphatgruppen und trivalenten Metallionen. Durch die Kinasereaktion wird ein fluoreszentes Substrat phosphoryliert, welches daraufhin von den in der Stop-Lösung enthaltenen Metall-Kügelchen spezifisch gebunden wird. Durch diese Interaktion erhöht sich die Fluoreszenzpolarisation, was die Bestimmung der Kinaseaktivität ermöglicht. Der Assay wurde nach Angaben des Herstellers wie folgt ausgeführt: • 1 Vol. Inhibitor in 4% DMSO bzw. 4% DMSO • 1 Vol. Enzymlösung • 2 Vol. ATP/Substrat • 12 Vol. Stoplösung • Inkubation bei RT 30 min.
Enzymlösung: z. […]
In general terms: In fluorescence polarisation assays a small probe gives low polarisation when free and higher when bound to something large.

Komplex aus SEQ ID NO: 12 und SEQ ID NO: 16, sequence (A0A0D1E894 entry or part of it): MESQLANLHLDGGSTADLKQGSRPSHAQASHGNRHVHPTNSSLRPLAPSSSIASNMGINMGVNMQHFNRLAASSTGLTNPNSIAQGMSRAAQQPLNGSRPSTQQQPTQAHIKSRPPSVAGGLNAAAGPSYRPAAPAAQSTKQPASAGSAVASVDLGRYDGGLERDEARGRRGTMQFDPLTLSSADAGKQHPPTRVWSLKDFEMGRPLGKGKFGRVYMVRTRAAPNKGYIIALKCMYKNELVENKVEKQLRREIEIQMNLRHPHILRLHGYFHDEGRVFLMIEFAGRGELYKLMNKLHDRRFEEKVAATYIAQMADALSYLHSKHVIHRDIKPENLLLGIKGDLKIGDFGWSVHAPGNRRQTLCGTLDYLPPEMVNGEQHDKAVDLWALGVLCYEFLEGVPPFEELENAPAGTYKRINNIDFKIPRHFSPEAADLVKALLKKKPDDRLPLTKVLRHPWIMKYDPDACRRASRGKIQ

Consider `CN(C)S(=O)(=O)N(SC(F)(Cl)Cl)c1ccccc1` [Dichlorfluarid], for which the “ED50 Wert” value in the experiment with U. maydis was determined as 1 ppm. Turning to `CN[C@@H]1C[C@H]2O[C@@](C)([C@@H]1OC)n1c3ccccc3c3c4c(c5c6ccccc6n2c5c31)C(=O)NC4` [Staurosporin], the IC50 in experiment [1] is 2.1 nM. Consider `COCCOc1ccc(Nc2ncc(Cl)c(NC3CC3)n2)cc1` [Verbindung 1], for which the midpoint of inhibition in experiment [1], the IC50, lay at 8.8 nM. Besides, in the experiment on U. maydis, the “ED50 Wert” value is 21,8 ppm.
